Data published in ChEMBL document CHEMBL1201862, “PubChem BioAssay data set” (2004).
Calls of active or inactive are those of the source.

Key:
[1] = target: Apoptotic protease-activating factor 1 (Homo sapiens, UniProt O14727); assay type: functional
[2] = target: T1, Zinc finger protein mex-5 (Caenorhabditis elegans, UniProt Q9XUB2); experiment: potency of MEX-5 RNA-binding blockers – biochemical, C. elegans, fluorescence polarization, dose response (AID 1960)
T1 sequence (Q9XUB2 whole entry): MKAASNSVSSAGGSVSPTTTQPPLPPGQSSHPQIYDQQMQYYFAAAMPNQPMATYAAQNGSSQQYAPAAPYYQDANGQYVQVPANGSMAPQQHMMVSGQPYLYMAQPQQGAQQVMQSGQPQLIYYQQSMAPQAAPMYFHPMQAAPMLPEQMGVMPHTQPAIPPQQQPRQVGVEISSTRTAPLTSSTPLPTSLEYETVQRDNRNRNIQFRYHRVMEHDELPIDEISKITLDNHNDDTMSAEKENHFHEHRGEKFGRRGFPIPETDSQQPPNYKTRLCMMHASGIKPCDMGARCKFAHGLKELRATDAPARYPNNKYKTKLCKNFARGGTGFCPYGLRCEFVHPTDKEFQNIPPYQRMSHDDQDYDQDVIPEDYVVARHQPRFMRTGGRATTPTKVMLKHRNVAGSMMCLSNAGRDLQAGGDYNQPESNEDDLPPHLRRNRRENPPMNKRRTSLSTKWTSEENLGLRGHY

[3] = target: T2, Microphthalmia-associated transcription factor (Homo sapiens, UniProt O75030); experiment: reducers of TRPM1 reporter luminescence, concentration series – cell-based, SK-MEL-5, cherry-picked, set 3, MITF inhibitor project, dose response (AID 493073); assay type: functional;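 note: SK-MEL-5 melanoma cells with luciferase driven by the MITF target TRPM1 promoter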
T2 sequence (O75030 whole entry): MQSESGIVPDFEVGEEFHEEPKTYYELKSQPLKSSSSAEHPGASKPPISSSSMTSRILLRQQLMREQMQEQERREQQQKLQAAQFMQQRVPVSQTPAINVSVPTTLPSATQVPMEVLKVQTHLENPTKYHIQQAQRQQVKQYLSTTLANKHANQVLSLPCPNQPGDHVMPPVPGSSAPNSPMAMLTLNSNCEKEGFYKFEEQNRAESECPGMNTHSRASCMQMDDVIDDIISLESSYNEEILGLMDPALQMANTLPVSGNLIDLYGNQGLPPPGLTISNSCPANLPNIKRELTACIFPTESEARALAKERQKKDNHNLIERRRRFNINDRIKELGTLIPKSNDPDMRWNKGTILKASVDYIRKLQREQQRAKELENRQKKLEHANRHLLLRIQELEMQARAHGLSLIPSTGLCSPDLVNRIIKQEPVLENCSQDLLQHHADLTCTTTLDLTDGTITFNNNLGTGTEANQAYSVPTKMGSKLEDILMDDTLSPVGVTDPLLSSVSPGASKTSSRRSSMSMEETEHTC

[4] = target: T3, RNA-binding protein pos-1 (Caenorhabditis elegans, UniProt G5EF15); experiment: disruptors of C. elegans POS-1 RNA interaction – biochemical, fluorescence polarization, dose response (AID 1964);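 note: purified POS-1 fused to maltose binding protein made in E. coli; potency of compounds blocking POS-1 binding to fluorescent RNA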
T3 sequence (G5EF15 whole entry): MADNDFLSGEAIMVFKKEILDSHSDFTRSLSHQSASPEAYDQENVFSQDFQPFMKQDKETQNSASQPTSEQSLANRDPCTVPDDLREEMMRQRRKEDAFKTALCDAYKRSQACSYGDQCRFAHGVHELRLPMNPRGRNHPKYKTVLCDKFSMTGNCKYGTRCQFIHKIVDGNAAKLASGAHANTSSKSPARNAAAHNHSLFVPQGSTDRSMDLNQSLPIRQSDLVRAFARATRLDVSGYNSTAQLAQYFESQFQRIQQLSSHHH

A-375 = experiment: proliferation inhibition in MITF-low A375 cells – cell-based, cherry-pick samples, set 2, counter-screen for MITF modulator project, dose response (AID 540335); assay type: functional; conditions: Homo sapiens
[5] = target: Beta-2 adrenergic receptor (Homo sapiens, UniProt P07550); experiment: ADRB2 activation measured by internalization – cell-based, FAP fluorogen, flow cytometry, cherry pick 1, dose response (AID 588763); assay type: functional
Beta Lactamase [6] = target: T4, Beta Lactamase (Pseudomonas aeruginosa, UniProt Q932Y6); experiment: BLA reporter interference, concentration series – BLA reporter cells, FRET fluorescence, artefact control for TLR9-MyD88 binding inhibitor project, dose response (AID 588341); assay type: cell-based;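 note: cell based assay in CHO-K1 cells stably expressing beta-lactamase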
Large T antigen = Large T antigen (Simian virus 40, UniProt P03070); assay type: functional, Betapolyomavirus macacae;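 note: Confirmatory-stage PubChem screen for compounds that inhibit SV40 T antigen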
Beta Lactamase [7] = target: T4, Beta Lactamase; experiment: BLA reporter interference, concentration series – BLA reporter cells, FRET fluorescence, artefact control for NOD2-RIPK2 interaction inhibitor project, dose response (AID 651552); assay type: functional, cell-based
[8] = viability loss in HeLa cells – cytotoxicity control for MgcRacGAP inhibitor project, dose response (AID 624300); assay type: functional
[9] = Fluorescence-based cell-based high throughput dose response assay for inhibitors of the interaction of nucleotide-binding oligomerization domain containing 2 (NOD2) and the receptor-interacting serine-threonine kinase 2 (RIPK2).; assay type: functional; conditions: Homo sapiens
[10] = target: T5, Kappa-type opioid receptor (Homo sapiens, UniProt P41145); assay type: functional
CHO = CHO cell viability loss, potency – luminescence, cytotoxicity control for TLR9-MyD88 binding inhibitor project, dose response (AID 588339); assay type: functional, cell-based, hamster; conditions: Cricetulus griseus;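 note: CHO cells stably coexpressing TLR9 and MyD88 fusions from primary screen; compound exposure lasted 48 hours before viability readout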
[11] = target: T5, Kappa-type opioid receptor; assay type: functional; remark: listed apart in the source
INS1 [12] = experiment: INS-1E survival protection against cytokine death – cell-based, luminescence, retest, dose response (AID 449756); assay type: functional; conditions: Rattus norvegicus;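 note: cell death triggered by IL-1 beta plus TNF-alpha plus IFN-gamma mixture; protective hits raise ATP signal compared with cytokine alone wells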
[13] = target: T6, Rac GTPase-activating protein 1 (Homo sapiens, UniProt Q9H0H5); experiment: blockers of MgcRacGAP-driven Rac1 GTP hydrolysis – biochemical, ADP Hunter fluorescence, primary and confirmatory, confirmation (AID 624330); assay type: functional
T6 sequence (Q9H0H5 whole entry): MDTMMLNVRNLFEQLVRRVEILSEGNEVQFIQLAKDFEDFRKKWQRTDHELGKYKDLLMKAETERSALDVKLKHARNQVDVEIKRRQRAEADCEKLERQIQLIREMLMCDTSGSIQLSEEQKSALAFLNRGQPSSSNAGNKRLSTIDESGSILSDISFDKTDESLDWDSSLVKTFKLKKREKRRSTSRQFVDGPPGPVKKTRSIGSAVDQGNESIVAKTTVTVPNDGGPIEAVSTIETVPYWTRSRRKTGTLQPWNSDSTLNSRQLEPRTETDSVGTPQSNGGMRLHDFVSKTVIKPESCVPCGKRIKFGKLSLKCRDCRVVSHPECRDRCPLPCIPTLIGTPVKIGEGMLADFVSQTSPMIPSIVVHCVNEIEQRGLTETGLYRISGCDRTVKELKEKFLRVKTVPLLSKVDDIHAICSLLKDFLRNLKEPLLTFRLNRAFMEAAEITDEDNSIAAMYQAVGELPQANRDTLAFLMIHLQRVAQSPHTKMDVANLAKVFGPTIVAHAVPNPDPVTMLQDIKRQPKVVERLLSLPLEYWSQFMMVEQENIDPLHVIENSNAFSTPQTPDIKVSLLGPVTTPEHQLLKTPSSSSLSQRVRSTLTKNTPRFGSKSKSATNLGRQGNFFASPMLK

Beta-galactosidase = Beta-galactosidase (Escherichia coli, UniProt Q8VNN2); assay type: functional
[14] = luciferase inhibitors in kinase-free ADP detection – biochemical, luminescence, cherry-pick, set 02, artefact control for Dyrk1A inhibitor project, dose response (AID 588348)
HSP90 = HSP90 (Plasmodium falciparum 3D7, UniProt Q8IL32); assay type: functional, organism-based
INS1 [15] = experiment: beta-cell survival under cytokine stress – INS-1E, ATP luminescence, dry powder, dose response (AID 488844); assay type: functional, cell-based; conditions: Rattus norvegicus
INS1 [16] = experiment: suppression of NO production in INS-1E cells – cell-based, Griess absorbance, dry powder, set 2, dose response (AID 488868); assay type: functional; conditions: Rattus norvegicus
INS1 [17] = experiment: INS-1E mitochondrial potential rescue under cytokines – cell-based, JC-1 fluorescence ratio, dry powder, dose response (AID 488931); assay type: functional; conditions: Rattus norvegicus
INS1 [18] = experiment: INS-1E mitochondrial potential loss inhibitors – cell-based, JC-1 fluorescence, dry powder, set 2, dose response (AID 488867); assay type: functional; conditions: Rattus norvegicus
HEK293 [19] = experiment: SAR Analysis of small molecule inhibitors of T-cell specific antigen receptor-induced NF-kB activation in a HEK-293T cell line using a luminescence assay - Set 2. [Related pubchem assays (depositor defined):AID435003, AID435012, AID489026]; assay type: functional, cell-based; conditions: Homo sapiens
HEK293 [20] = experiment: HEK293T cell viability loss, resazurin readout – resazurin fluorescence, cytotoxicity control for NF-kB activator project, SAR follow-up (AID 493251); assay type: functional, cell-based; conditions: Homo sapiens
Jurkat = experiment: SAR Analysis of small molecule inhibitors of T-cell specific antigen receptor-induced NF-kB activation in a Jurkat cell line using a luminescence assay - Set 2. [Related pubchem assays (depositor defined):AID435003, AID435012, AID465]; assay type: functional, cell-based; conditions: Homo sapiens
[21] = target: ATP-dependent molecular chaperone HSP82 (Candida albicans (strain WO-1) (Yeast), UniProt C4YTQ8); experiment: steroid-induced GRE reporter decrease in yeast – S. cerevisiae, luminescence, Hsp90 inhibitor project, dose response (AID 2400); assay type: functional, cell-based;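 note: beta-galactosidase luminescence from glucocorticoid response element reporter as proxy for Hsp90 function; inhibitor potency where signal loss means Hsp90 inhibition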
[22] = Trypanosoma cruzi growth suppression in host cells – NIH3T3 host cells, beta-gal luminescence, confirmation (AID 2044); assay type: functional, cell-based;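 note: intracellular parasites grown in NIH/3T3 mouse fibroblasts as host cells; luminescent beta-galactosidase reporter signal from transgenic T. cruzi replicating inside host cells; inhibitors lower the luminescence signal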
[23] = fluconazole-exposed Candida albicans growth modulators – fluorescence, retest, confirmation (AID 2467); assay type: functional, cell-based
[24] = target: Serine/threonine-protein phosphatase (Candida dubliniensis (strain CD36 / CBS 7987 / NCPF 3949 / NRRLY-17841) (Yeast), UniProt B9W6M3); experiment: blockers of CaCl2-induced CDRE-lacZ signaling – S. cerevisiae, luminescence, secondary, dose response (AID 2388); assay type: functional, cell-based;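 note: yeast reporter cells carrying a calcineurin-responsive lacZ construct stimulated with calcium chloride; luminescent beta-galactosidase reporter signal in whole cells rather than isolated phosphatase activity; potency for inhibition where a drop in reporter signal means calcineurin blockade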
[25] = NIH-3T3 fibroblast cytotoxicity, dose response, cytotoxicity control, cell-based, fluorescence, Alamar Blue, secondary assay (AID 2327); assay type: functional;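 note: NIH-3T3 mouse fibroblasts cultured with fluconazole at 8 µg/mL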
[26] = NIH3T3 cell viability loss – ATP luminescence, mouse fibroblasts, counter-screen, dose response (AID 2010); assay type: functional, cell-based;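 note: cells exposed to compound for about 90 hours before reading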

T5 sequence (P41145 whole entry, the tested form may be a part): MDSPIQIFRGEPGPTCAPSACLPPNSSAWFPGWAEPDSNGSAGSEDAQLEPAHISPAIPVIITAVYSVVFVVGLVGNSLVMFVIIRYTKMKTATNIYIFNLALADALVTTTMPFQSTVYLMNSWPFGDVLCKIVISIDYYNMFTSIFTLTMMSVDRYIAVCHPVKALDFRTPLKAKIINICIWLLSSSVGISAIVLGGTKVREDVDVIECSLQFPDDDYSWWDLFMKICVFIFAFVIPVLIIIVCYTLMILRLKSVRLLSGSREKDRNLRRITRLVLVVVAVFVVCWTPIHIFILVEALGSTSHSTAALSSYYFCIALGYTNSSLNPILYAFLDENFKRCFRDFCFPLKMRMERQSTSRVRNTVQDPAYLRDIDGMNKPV
T4 sequence (Q932Y6 whole entry): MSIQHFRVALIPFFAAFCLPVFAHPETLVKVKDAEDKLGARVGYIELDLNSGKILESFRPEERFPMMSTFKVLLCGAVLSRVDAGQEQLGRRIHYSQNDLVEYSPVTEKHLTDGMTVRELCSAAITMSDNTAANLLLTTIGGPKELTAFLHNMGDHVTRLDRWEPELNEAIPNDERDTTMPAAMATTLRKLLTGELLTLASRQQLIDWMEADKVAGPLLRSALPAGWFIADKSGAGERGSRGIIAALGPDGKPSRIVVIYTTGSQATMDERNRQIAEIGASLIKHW
Sequence of Beta-galactosidase (Q8VNN2 whole entry): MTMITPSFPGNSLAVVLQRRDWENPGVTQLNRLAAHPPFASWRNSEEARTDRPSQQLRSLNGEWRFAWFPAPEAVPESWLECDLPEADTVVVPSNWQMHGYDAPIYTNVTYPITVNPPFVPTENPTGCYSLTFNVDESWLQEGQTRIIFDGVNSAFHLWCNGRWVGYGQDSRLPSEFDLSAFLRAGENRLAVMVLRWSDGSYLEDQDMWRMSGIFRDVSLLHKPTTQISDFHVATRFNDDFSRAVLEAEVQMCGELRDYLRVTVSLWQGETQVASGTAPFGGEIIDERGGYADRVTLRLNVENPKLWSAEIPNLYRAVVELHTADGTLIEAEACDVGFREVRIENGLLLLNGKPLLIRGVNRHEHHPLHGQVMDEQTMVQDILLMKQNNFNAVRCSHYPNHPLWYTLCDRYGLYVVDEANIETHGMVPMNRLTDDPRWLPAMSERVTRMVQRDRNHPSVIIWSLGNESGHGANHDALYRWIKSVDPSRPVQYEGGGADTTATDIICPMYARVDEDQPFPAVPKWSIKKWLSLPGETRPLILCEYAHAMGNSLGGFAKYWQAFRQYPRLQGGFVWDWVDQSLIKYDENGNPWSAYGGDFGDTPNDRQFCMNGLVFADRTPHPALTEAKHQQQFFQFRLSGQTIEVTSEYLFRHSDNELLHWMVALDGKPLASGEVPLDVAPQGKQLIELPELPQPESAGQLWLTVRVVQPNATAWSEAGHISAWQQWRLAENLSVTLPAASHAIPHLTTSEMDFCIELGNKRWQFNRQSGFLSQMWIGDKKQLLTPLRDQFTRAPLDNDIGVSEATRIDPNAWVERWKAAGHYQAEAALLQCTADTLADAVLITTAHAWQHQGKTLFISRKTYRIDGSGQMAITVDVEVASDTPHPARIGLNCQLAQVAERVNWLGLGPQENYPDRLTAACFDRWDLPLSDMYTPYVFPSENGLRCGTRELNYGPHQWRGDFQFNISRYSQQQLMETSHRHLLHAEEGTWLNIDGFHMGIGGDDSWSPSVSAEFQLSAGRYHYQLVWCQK
Sequence of Large T antigen (P03070 whole entry): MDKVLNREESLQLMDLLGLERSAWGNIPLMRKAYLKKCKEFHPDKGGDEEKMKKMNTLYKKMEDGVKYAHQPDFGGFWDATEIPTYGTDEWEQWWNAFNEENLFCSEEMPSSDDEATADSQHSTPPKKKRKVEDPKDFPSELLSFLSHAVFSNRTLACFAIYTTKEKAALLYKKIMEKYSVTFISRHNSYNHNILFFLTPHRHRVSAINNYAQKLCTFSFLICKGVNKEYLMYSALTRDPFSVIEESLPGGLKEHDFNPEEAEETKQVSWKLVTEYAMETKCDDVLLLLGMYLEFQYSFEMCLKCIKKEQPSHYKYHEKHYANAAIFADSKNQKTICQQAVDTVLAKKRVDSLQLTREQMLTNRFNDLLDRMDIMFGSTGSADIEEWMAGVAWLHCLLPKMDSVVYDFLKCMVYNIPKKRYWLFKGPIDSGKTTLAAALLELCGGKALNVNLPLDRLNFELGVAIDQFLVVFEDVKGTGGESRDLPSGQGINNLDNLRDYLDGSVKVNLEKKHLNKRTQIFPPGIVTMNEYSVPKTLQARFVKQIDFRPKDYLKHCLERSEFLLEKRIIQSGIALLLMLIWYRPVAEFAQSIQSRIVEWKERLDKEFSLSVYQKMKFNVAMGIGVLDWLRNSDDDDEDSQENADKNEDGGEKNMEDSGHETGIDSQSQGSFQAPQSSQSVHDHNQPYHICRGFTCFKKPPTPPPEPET
Sequence of Beta-2 adrenergic receptor (P07550 whole entry): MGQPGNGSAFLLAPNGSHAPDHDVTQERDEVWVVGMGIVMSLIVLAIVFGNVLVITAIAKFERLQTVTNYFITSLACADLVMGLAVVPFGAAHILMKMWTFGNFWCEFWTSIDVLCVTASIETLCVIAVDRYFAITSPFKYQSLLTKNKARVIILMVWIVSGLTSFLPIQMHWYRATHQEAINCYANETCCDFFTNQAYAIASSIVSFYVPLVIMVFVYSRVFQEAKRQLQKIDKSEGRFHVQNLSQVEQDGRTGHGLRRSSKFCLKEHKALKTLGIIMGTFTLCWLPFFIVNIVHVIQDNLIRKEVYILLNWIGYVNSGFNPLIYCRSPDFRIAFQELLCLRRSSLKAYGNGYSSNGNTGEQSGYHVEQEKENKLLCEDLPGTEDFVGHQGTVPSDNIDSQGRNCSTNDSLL
Sequence of Serine/threonine-protein phosphatase (B9W6M3 whole entry): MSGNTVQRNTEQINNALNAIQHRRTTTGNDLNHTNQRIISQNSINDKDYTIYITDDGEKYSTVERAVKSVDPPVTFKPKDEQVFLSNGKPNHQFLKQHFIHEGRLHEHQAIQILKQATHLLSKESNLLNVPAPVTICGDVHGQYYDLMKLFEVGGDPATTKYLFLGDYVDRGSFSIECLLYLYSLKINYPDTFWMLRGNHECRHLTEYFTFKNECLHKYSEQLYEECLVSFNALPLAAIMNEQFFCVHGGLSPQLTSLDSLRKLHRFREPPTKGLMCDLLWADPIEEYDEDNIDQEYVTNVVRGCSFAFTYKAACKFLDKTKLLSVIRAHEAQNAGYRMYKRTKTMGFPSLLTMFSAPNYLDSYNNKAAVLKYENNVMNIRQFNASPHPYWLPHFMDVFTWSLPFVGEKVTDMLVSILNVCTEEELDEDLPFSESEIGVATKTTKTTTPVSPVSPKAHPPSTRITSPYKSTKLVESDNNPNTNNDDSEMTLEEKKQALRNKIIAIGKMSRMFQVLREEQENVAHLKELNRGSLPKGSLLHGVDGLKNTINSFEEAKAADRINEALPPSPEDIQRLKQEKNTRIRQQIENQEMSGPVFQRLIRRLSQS
Sequence of Apoptotic protease-activating factor 1 (O14727 whole entry): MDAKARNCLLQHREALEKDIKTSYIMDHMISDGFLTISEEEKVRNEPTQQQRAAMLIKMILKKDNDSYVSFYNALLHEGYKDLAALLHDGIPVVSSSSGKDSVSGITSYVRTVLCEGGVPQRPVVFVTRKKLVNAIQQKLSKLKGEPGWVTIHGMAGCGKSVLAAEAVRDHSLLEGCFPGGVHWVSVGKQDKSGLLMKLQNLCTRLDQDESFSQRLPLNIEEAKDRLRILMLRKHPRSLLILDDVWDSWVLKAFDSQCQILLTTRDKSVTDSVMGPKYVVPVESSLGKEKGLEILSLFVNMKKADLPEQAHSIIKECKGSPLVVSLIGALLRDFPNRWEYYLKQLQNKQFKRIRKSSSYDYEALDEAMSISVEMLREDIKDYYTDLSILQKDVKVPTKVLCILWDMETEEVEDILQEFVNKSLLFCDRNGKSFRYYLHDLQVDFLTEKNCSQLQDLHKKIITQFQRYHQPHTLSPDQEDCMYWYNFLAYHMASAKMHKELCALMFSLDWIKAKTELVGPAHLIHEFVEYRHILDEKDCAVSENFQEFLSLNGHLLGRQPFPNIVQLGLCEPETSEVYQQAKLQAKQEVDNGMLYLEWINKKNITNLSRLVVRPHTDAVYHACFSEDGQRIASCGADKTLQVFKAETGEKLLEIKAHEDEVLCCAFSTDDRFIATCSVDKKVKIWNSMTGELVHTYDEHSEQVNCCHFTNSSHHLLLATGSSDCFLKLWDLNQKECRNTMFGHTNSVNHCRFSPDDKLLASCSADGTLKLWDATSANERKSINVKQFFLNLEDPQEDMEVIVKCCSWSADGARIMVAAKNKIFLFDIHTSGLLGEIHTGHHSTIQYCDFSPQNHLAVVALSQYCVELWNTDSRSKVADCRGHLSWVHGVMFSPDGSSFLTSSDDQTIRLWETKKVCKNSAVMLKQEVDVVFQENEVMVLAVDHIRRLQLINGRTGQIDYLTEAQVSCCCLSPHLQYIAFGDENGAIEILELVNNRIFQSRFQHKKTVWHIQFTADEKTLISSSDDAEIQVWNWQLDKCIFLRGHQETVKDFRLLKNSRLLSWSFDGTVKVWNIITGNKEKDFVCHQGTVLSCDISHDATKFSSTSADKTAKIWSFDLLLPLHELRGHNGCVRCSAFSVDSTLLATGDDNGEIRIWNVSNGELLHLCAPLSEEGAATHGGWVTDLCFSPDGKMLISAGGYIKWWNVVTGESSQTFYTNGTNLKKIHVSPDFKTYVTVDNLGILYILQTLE

**Q.** What does the source list for Cc1ccc(C(=O)N/C(=C\c2ccc(-c3ccccc3[N+](=O)[O-])o2)C(=O)NCCCN(C)C)cc1?
**A.** IC50 [1]: 70.1 µM (active); EC50 [2]: 18.6 µM (active); AC50 [3]: 3.28 µM (active); EC50 [4]: > 300 µM (inconclusive); AC50 (A-375): 33.4 µM (active)

**Q.** For CN(c1ccccc1)S(=O)(=O)c1cccc(C(=O)Nc2cccc(C(=O)NC3CC3)c2)c1, which EC50 [5] is on record?
**A.** 575 nM (active)

**Q.** Which IC50 (Beta Lactamase [6]) does the source give for N#CC(C#N)=C1C=CC=CN1/C(=C\c1ccco1)C(=O)c1ccc(Br)cc1 here?
**A.** 13.2 µM (inactive)

**Q.** And the IC50 (Large T antigen)?
**A.** 15.5 µM (active)

**Q.** What about the IC50 (Beta Lactamase [7]) of the same compound?
**A.** 44.7 µM (inactive)

**Q.** What about the CC50 [8] of the same compound?
**A.** 100 µM (active)

**Q.** What about the IC50 [9] of the same compound?
**A.** 895 nM (active)

**Q.** What about the IC50 [10] of the same compound?
**A.** 15.4 µM

**Q.** And the IC50 (CHO)?
**A.** 1.56 µM (active)

**Q.** What about the IC50 [11] of the same compound?
**A.** 4.51 µM (active)

**Q.** What about the AC50 (INS1 [12]) of the same compound?
**A.** 7.3 µM (active)

**Q.** What about the IC50 [13] of the same compound?
**A.** 88.7 µM (active)

**Q.** And the EC50 (Beta-galactosidase)?
**A.** > 31.5 µM (inactive)

**Q.** And the AC50 [3]?
**A.** 5.59 µM (active)

**Q.** For CC(=O)Nc1cccc(C(=O)OCC(=O)c2ccc3c(c2)OCO3)c1, which AC50 [14] is on record?
**A.** 50.2 µM (active)

**Q.** Which AC50 (HSP90) does the source give for O=C(COc1ccc(Cl)cc1)NC1=NN(c2ccccc2)C(=O)C1 here?
**A.** 32.5 µM (active)

**Q.** For Cc1ccc(S(=O)(=O)N(C)C[C@@H]2Oc3c(NC(=O)Nc4cccc5ccccc45)cccc3C(=O)N([C@H](C)CO)C[C@H]2C)cc1, which AC50 (INS1 [15]) is on record?
**A.** > 235 µM (inactive)

**Q.** What about the AC50 (INS1 [16]) of the same compound?
**A.** 30.3 µM (active)

**Q.** And the AC50 (INS1 [17])?
**A.** 61.1 µM (active)

**Q.** Which results are given for COc1ccc(S(=O)(=O)N(C)C[C@@H]2Oc3c(NC(=O)Nc4ccc(F)cc4)cccc3C(=O)N([C@@H](C)CO)C[C@H]2C)cc1?
**A.** AC50 (INS1 [15]): 22.8 µM (active); AC50 (INS1 [18]): 134 µM (active)

**Q.** Which results are given for COc1cc(NC(=O)c2ccc3c(c2)OCO3)ccc1NC(=O)c1cc2ccccc2o1?
**A.** IC50 (HEK293 [19]): > 80 µM (inactive); IC50 (HEK293 [20]): > 80 µM (inactive); IC50 (Jurkat): > 79 µM (inactive)

**Q.** With CCOc1ccccc1NC(=O)C(=O)N/N=C/c1cc(Br)ccc1O as the compound, how does the EC50 [21] read?
**A.** > 160 µM (inactive)

**Q.** And the EC50 [22]?
**A.** 1.02 µM (active)

**Q.** And the EC50 [23]?
**A.** 358 nM (active)

**Q.** What about the AC50 (INS1 [12]) of the same compound?
**A.** 1.04 µM (active)

**Q.** What about the AC50 [3] of the same compound?
**A.** 3.34 µM (active)

**Q.** What about the EC50 [24] of the same compound?
**A.** > 180 µM (inactive)

**Q.** What about the EC50 [25] of the same compound?
**A.** > 160 µM (inactive)

**Q.** And the EC50 [26]?
**A.** > 60 µM (not active)
